Data on 20 molecules can be found in patent publication US8575193B2, “N-substituted tetrahydroisoquinoline/isoindoline hydroxamic acid compounds” (4SC AG, priority 2008, dated 2013).

For series [1], the target named is T1, rHDAC3 (Homo sapiens, UniProt O15379).
T1 construct: FLAG; made in house; host or cells: baculovirus-infected Sf21 insect cells
Description: rHDAC3 enzymatic assay (recombinant FLAG-HDAC3). Format: biochemical. The following applies: FLAG-HDAC3 from insect cells; 6 μM Ac-NH-GGK(Ac)-AMC, 2 h at 30° C.; read-out: rHDAC3 [pIC50] (converted). From the text:
Human HDAC1 and HDAC6 fused with the FLAG epitope are stably expressed in HEK293 cells while human HDAC3 and HDAC8 fused with the FLAG epitope are overexpressed in baculo-virus infected insect (Sf21) cells. To ensure stability of FLAG-HDAC3 the SMRT protein is co-expressed in the corresponding insect cells. […] FLAG-HDAC3 and FLAG-HDAC8 are also purified by M2-agarose affinity chromatography after mass cultivation of the insect cells and cell lysis.
The HDAC enzyme activity assay is done as described by Wegener et al. (Chem. & Biol. 10, 61-68, 2003). Briefly 40 μl of a 1:100 dilution (=0.4 μl) nuclear HeLa extract (mixture of class I and II HDACs), 29 μl enzyme buffer (15 mM Tris HCl pH 8.1, 0.25 mM EDTA, 250 mM NaCl, 10% v:v glycerol) and 1 μl test compound are added to a well of a 96 well microtiter plate and reaction started by addition of 3 μl substrate (Ac-NH-GGK(Ac)-AMC; final concentration 25 μM and final volume […]). […] After incubation at room temperature for further 40 min, fluorescence is measured using a Wallac Victor 1420 multilabel counter (Ex 355 nm, Em 460 nm) for quantification of AMC (7-amino-4-methylcoumarin) generated by trypsine cleavage of the deacetylated peptide. […] The corresponding pIC50 values of the compounds for HDAC inhibitory activity are determined from the concentration-effect curves by means of non-linear regression (Graphpad Prism software).
The HDAC1, HDAC3 and HDAC6 enzymatic assays are done with slight modifications with recombinant FLAG-HDAC1 and FLAG-HDAC6 proteins isolated from HEK293 cell lysates or recombinant FLAG-HDAC3 isolated from insect cells, respectively. The HDAC8 enzymatic assay using recombinant FLAG-HDAC8 isolated from insect cells is done with a different substrate. About 4.5 ng/well FLAG-HDAC1 and 3.1 ng/well FLAG-HDAC6 (dependent on batches and specific activity) are incubated with 6 μM or 10 μM Ac-NH-GGK(Ac)-AMC substrate, respectively, for 3 h at 30° C. About 1.7 ng/well FLAG-HDAC3 is incubated with 6 μM Ac-NH-GGK(Ac)-AMC substrate for 2 h at 30° C., while approximately 130 ng/well FLAG-HDAC8 is incubated with 50 μM Ac-RHK(Ac)K(Ac)-AMC substrate for 3 h at 30° C. Termination of the reaction and all further steps are done as described for HeLa cell nuclear extracts as a source for HDAC enzymatic activity. The corresponding pIC50 values of the compounds for HDAC1, HDAC3, HDAC6 and HDAC8 inhibitory activity are determined from the concentration-effect curves by means of non-linear regression.

Series [2] is described as follows: Cellular cytotoxicity assay (Alamar Blue/Resazurin), RKOp21. The class given is cell-based. As to conditions: human, RKOp21 cells; RKOp21, 72 hours incubation, Resazurin; read-out: RKOp21 Cytotoxicity [pIC50] (converted). How it is done: (§1) The anti-proliferative activity of the compounds as described herein, is evaluated with various solid and hematological cancer cell lines using the Alamar Blue (Resazurin) cell viability assay (O'Brien et al, Eur J Biochem 267, 5421-5426, 2000). Resazurin is reduced to the fluorescent resorufin by cellular dehydrogenase activity, correlating with viable, proliferating cells. Test compounds are dissolved as 20 mM solutions in dimethylsulfoxide (DMSO) and subsequently diluted in semi-logarithmic steps. The cancer cell lines are seeded into 96 well flat bottom plates at respective cell densities in a volume of 200 μl per well to allow continuous proliferation during the experiment. 24 hours after seeding 1 μl each of the compound dilutions is added into each well of the 96 well plate. Wells containing untreated control cells are filled with 200 μl DMEM medium containing 0.5% v:v DMSO. The cells are then incubated with the substances for 72 hours at 37° C. in a humidified atmosphere containing 5% carbon dioxide. To determine the viability of the cells, 20 μl of a Resazurin solution (Sigma; 90 mg/l) are added. After 4 hours incubation at 37° C. the fluorescence is measured at an extinction of 544 nm and an emission of 590 nm. For the calculation of the cell viability the emission value from untreated cells is set as 100% viability and the emission rates of treated cells are set in relation to the values of untreated cells. Viabilities are expressed as % values. The corresponding pIC50 values of the compounds for cytotoxic activity are determined from the concentration-effect curves by means of non-linear regression.
For orientation: The colour change of resazurin is a common sign of viable cells or microbes.

Series [3] in a line: Cellular cytotoxicity assay (Alamar Blue/Resazurin), A549. Format: cell-based. The following applies: human, A549 cells; A549, 72 hours incubation, Resazurin; read-out: A549 Cytotoxicity [pIC50] (converted). How it is done: as §1

Structures can show the parent of a compound that is named as a salt.

T1 sequence (O15379 whole entry): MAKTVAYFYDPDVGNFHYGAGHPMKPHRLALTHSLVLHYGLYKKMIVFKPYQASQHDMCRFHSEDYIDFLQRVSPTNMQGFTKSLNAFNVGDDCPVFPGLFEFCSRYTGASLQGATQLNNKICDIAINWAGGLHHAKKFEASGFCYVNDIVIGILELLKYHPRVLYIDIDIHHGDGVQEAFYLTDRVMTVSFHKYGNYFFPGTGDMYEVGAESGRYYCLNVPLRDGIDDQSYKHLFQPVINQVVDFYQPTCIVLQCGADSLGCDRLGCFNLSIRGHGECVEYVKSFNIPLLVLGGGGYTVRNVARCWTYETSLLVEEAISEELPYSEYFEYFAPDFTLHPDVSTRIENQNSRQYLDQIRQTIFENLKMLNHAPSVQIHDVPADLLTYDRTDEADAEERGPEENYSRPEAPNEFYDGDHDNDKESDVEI
T1 sequence (Q9Y618 whole entry partner): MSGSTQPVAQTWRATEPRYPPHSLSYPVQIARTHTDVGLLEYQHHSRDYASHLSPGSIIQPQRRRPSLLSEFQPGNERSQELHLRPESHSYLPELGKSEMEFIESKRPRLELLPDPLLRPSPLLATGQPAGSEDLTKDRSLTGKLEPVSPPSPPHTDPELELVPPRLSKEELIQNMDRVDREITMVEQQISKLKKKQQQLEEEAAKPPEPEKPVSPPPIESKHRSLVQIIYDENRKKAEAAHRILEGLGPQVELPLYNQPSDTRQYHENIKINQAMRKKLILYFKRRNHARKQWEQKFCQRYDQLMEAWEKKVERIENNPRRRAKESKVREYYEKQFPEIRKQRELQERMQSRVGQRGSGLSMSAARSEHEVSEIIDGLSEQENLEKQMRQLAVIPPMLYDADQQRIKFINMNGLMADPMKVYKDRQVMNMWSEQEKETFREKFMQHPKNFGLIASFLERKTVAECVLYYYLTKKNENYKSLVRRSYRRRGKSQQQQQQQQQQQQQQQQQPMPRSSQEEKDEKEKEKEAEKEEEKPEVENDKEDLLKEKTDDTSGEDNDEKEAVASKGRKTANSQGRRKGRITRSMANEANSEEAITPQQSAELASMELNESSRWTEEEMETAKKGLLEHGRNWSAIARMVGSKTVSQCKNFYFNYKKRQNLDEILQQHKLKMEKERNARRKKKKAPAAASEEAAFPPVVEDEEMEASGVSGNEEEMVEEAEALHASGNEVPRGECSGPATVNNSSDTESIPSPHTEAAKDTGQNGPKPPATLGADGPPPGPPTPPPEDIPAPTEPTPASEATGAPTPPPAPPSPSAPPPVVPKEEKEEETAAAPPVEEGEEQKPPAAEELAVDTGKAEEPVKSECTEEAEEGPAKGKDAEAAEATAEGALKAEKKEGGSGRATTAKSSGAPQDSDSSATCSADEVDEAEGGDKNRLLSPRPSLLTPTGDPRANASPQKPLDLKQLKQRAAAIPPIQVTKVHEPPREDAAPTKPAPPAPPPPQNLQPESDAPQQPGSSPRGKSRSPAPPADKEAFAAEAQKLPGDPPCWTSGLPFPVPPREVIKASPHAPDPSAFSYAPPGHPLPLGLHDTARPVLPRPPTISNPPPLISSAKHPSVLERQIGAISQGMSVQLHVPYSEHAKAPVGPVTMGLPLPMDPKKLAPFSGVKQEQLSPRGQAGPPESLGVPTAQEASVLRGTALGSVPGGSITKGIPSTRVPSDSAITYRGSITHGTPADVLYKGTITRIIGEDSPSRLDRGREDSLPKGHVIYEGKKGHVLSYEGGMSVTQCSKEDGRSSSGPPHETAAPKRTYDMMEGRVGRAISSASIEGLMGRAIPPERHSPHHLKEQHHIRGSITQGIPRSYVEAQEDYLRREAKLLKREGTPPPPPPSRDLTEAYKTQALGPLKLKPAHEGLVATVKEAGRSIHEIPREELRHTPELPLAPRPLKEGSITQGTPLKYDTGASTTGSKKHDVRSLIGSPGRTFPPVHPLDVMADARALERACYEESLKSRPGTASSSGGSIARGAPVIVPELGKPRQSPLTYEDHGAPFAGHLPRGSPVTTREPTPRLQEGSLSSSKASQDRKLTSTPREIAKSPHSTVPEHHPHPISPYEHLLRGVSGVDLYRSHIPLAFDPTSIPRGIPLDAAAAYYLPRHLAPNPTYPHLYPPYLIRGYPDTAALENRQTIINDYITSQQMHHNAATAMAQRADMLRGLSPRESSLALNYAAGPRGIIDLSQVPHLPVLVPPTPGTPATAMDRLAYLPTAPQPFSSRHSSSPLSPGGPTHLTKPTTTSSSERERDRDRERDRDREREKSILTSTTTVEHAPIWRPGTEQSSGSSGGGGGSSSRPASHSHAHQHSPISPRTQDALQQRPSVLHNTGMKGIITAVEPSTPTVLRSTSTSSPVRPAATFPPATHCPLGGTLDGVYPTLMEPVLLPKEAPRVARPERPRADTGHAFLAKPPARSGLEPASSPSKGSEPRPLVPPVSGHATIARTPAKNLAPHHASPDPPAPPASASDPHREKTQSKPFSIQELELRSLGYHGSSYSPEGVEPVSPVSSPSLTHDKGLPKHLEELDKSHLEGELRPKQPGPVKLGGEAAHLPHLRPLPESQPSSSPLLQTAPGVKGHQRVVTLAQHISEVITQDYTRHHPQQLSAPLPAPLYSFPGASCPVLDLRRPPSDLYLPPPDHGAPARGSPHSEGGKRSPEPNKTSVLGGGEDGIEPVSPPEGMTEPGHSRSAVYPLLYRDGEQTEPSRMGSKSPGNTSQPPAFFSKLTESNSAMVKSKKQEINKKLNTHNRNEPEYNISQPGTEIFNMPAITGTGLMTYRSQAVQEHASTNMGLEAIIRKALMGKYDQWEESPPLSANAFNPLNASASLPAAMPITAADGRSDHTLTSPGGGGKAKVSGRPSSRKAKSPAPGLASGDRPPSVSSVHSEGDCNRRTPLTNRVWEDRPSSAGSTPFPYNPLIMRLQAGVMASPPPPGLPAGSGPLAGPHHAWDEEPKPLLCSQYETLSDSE

`CNC(=O)N1CCc2cc(C(=O)NO)ccc2C1` [Example 4, N6-Hydroxy-N2-methyl-3,4-dihydroisoquinoline-2,6(1H)-dicarboxamide]: the IC50 in series [1] was 10 to 100 µM. Moreover, the IC50 at 72 h in series [2] and in series [3] was over 100 µM in each case.

Turning to `COc1ccc2[nH]c(C(=O)N3CCc4ccc(C(=O)NO)cc4C3)cc2c1` [Example 24, N-Hydroxy-2-[(5-methoxy-1H-indol-2-yl)carbonyl]-1,2,3,4-tetrahydroisoquinoline-7-carboxamide], the IC50 in series [1] is 1 to 10 µM. Also, the IC50 at 72 h in series [2] and in series [3] was 1 to 100 µM each time.

`O=C(NO)c1ccc2c(c1)CN(C(=O)Cc1ccccn1)CC2` [Example 21, N-Hydroxy-2-(pyridin-2-ylacetyl)-1,2,3,4-tetrahydroisoquinoline-7-carboxamide hydrochloride]: in series [1], the IC50 is 10 to 100 µM. The IC50 at 72 h in series [3] was over 100 µM.

Regarding `COCCCNC(=O)N1CCc2cc(C(=O)NO)ccc2C1` [Example 5, N6-Hydroxy-N2-(3-methoxypropyl)-3,4-dihydroisoquinoline-2,6(1H)-dicarboxamide], in series [1], the IC50 is 10 to 100 µM. The IC50 at 72 h in series [2] and in series [3] was over 100 µM in each case.

As for `O=C(NO)c1ccc2c(c1)CN(C(=O)C1CCOC1)CC2` (stereo not drawn) [Example 20, N-Hydroxy-2-(tetrahydrofuran-3-ylcarbonyl)-1,2,3,4-tetrahydroisoquinoline-7-carboxamide], the IC50 in series [1] is 10 to 100 µM. The IC50 at 72 h in series [2] and in series [3] was over 100 µM in each case.

As for `O=C(NO)c1ccc2c(c1)CN(C(=O)Cc1c[nH]c3ccccc13)CC2` [Example 18, N-Hydroxy-2-(1H-indol-3-ylacetyl)-1,2,3,4-tetrahydroisoquinoline-7-carboxamide], the IC50 in series [1] was 1 to 10 µM. Besides, in series [3], the IC50 at 72 h is 1 to 100 µM.

Regarding `O=C(NO)c1ccc2c(c1)CN(C(=O)Cc1cccnc1)CC2` [Example 19, N-Hydroxy-2-(pyridin-3-ylacetyl)-1,2,3,4-tetrahydroisoquinoline-7-carboxamide hydrochloride], in series [1], the IC50 was 10 to 100 µM. In addition, in series [3], the IC50 at 72 h is over 100 µM.

`O=C(NO)c1ccc2c(c1)CCN(C(=O)Cc1c[nH]c3ccccc13)C2` [Example 1, N-Hydroxy-2-(indol-3-ylacetyl)-1,2,3,4-tetrahydroisoquinoline-6-carboxamide hydrochloride]: the IC50 in series [1] was 1 to 10 µM. The IC50 at 72 h in series [2] and in series [3] was 1 to 100 µM throughout.

With `CN(C)CCCC(=O)N1CCc2cc(C(=O)NO)ccc2C1` [Example 9, 2-[4-(Dimethylamino)butanoyl]-N-hydroxy-1,2,3,4-tetrahydroisoquinoline-6-carboxamide hydrochloride], the IC50 in series [1] is 10 to 100 µM. The IC50 at 72 h in series [2] was over 100 µM; in series [3], 1 to 100 µM.

Regarding `Cc1nccn1CC(=O)N1CCc2cc(C(=O)NO)ccc2C1` [Example 10, N-Hydroxy-2-[(2-methyl-1H-imidazol-1-yl)acetyl]-1,2,3,4-tetrahydroisoquinoline-6-carboxamide hydrochloride], the IC50 in series [1] was 10 to 100 µM. Moreover, the IC50 at 72 h in series [3] was over 100 µM.

On to `O=C(NO)c1ccc2c(c1)CCN(C(=O)CCc1cccnc1)C2` [Example 7, N-Hydroxy-2-(3-pyridin-3-ylpropanoyl)-1,2,3,4-tetrahydroisoquinoline-6-carboxamide hydrochloride], for which the IC50 in series [1] was 10 to 100 µM. The IC50 at 72 h in series [3] was over 100 µM.

`CC(=O)N1CCc2cc(C(=O)NO)ccc2C1` [Example 12, 2-Acetyl-N-hydroxy-1,2,3,4-tetrahydroisoquinoline-6-carboxamide]: the IC50 in series [1] is 10 to 100 µM. Besides, the IC50 at 72 h in series [3] was over 100 µM.

As for `Cc1ccc(C(=O)N2CCc3ccc(C(=O)NO)cc3C2)cc1` [Example 23, N-Hydroxy-2-(4-methylbenzoyl)-1,2,3,4-tetrahydroisoquinoline-7-carboxamide], in series [1], the IC50 was 10 to 100 µM. The IC50 at 72 h in series [3] was 1 to 100 µM.

Take `CC#CC(=O)N1CCc2ccc(C(=O)NO)cc2C1` [Example 17, 2-But-2-ynoyl-N-hydroxy-1,2,3,4-tetrahydroisoquinoline-7-carboxamide]: the IC50 in series [1] was 10 to 100 µM. Also, the IC50 at 72 h in series [3] was over 100 µM.

With `O=C(NO)c1ccc2c(c1)CN(C(=O)NCCc1ccccc1)CC2` [Example 22, N7-Hydroxy-N2-(2-phenylethyl)-3,4-dihydroisoquinoline-2,7(1H)-dicarboxamide], the IC50 in series [1] is 1 to 10 µM. Further, the IC50 at 72 h in series [3] is 1 to 100 µM.

For the molecule `COCCCOC(=O)N1CCc2cc(C(=O)NO)ccc2C1` [Example 6, 3-Methoxypropyl-6-(hydroxycarbamoyl)-3,4-dihydroisoquinoline-2(1H)-carboxylate], the IC50 in series [1] is 10 to 100 µM. Also, the IC50 at 72 h in series [2] and in series [3] was over 100 µM in each case.

For the molecule `O=C(NO)c1ccc2c(c1)CCN(C(=O)Cc1cccnc1)C2` [Example 8, N-Hydroxy-2-(pyridin-3-ylacetyl)-1,2,3,4-tetrahydroisoquinoline-6-carboxamide hydrochloride], the IC50 in series [1] is 10 to 100 µM. For the same molecule, the IC50 at 72 h in series [2] and in series [3] was over 100 µM in each case.

As to `O=C(NO)c1ccc2c(c1)CCN(C(=O)C1CCOC1)C2` (stereo not drawn) [Example 13, N-Hydroxy-2-(tetrahydrofuran-3-ylcarbonyl)-1,2,3,4-tetrahydroisoquinoline-6-carboxamide], in series [1], the IC50 is 10 to 100 µM. The IC50 at 72 h in series [2] and in series [3] was over 100 µM each time.

Usually melting point stands for the temperature of the solid-liquid transition. Consider `O=C(NO)c1ccc2c(c1)CCN(C(=O)C1CC1)C2` [Example 16, N-Hydroxy-2-(cyclopropylcarbonyl)-1,2,3,4-tetrahydroisoquinoline-6-carboxamide], for which the melting point amounted to 90 °C. In addition, the IC50 in series [1] was 10 to 100 µM. For the same molecule, the IC50 at 72 h in series [3] is over 100 µM.

`O=C(NO)c1ccc2c(c1)CCN(C(=O)C1CCC1)C2` [Example 3, 2-(Cyclobutylcarbonyl)-N-hydroxy-1,2,3,4-tetrahydroisoquinoline-6-carboxamide]: the IC50 in series [1] was 10 to 100 µM. Besides, the IC50 at 72 h in series [2] and in series [3] was over 100 µM in each case.
